{"source": "patent US20220313658A1", "about": "“YAP Inhibition for Wound Healing” (The Board of Trustees of the Leland Stanford Junior …, priority 2019, published 2022)", "system": "ENFs", "assay": "Bulk RNA-seq of ENFs cultured on TCPS in the presence of Verteporfin", "type": "cell-based, mouse", "description": "Total RNA was harvested by lysing cells in Trizol reagent (Invitrogen), RNA extraction and library preparation was performed by the Stanford Functional Genomics facility using standard Qiagen kits and protocols. Directional RNA-Sal libraries were analyzed with an Agilent Bioanalyzer to ensure successful library creation, and then sequenced with the Illumina HiSeq 4000 System (2×75 bp, 150 cycles), Paired-end reads were mapped to the mouse genome reference sequence mm10 using the STAR aligner. […] It is common practice to normalize read counts by the total number of reads and the length of each transcript, yielding reads per kilobase mapped (RPKM) values. However, such analysis may be skewed towards a few highly expressed genes that dominate the total lane count. Thus, instead, counts were normalized by a size factor, calculated by taking the median of the ratios of observed counts to those of a pseudo-reference sample (whose counts are the geometric means of each gene across all samples). For hypothesis testing of differential gene transcription, the read counts were modeled according to a negative binomial distribution, with the variance considered as the sum of the shot noise term and a locally regressed non-parametric smooth function of the mean. […] Raw RNA-seq data can be accessed at the following Github repository: https://github.com/[…]. […] Ranked whole genome enrichment analyses in FIGS. 6 and 7 were performed using GSEA software developed by the Broad Institute with nominal p value and false discovery rate (FDR) cutoffs of 0.01 and 0.25, respectively. All g.Profiler and GSEA results are available in the following Github repository: https://github.com/[…]. In order to ascertain whether in vitro En-1 activation involved a shift toward a fibrotic transcriptomic profile, bulk ENFs were isolated from En-1^Cre;R26^mTmG mice and grew these cells on TCPS for 2 days (at which point ENFs remain single cells), 7 days (when ENFs form colonies), or 14 days (when ENFs activate En-1) (experimental schematic in FIG. 3, A). Cultured cells were then subjected to bulk RNA-seq analysis. Next, to assess if postnatal En-1 activation was dependent on mechanotransduction signaling, ENFs cultured on TCPS were grown in the presence of Verteporfin. After 14 days in culture, treated cells were subjected to RNA-seq. […] GO term analysis in g.", "key": {"[1]": {"details": "ENFs on TCPS, 14 days with Verteporfin"}}, "data": [{"substance": "verteporfin", "values": [{"measurement": "Expression of ECM / pro-fibrotic matrix genes", "setting": "[1]", "result": "reduced expression of various ECM genes"}, {"measurement": "GO term enrichment (g.Profiler)", "setting": "[1]", "result": "decreased enrichment of ECM-related terms and relatively higher muscle development-related terms"}, {"measurement": "Transcriptomic shift over time in culture (RNA-seq)", "setting": "ENFs on TCPS, 14 days with Verteporfin, vs untreated cells", "result": "attenuated the transcriptomic shift observed in untreated cells"}, {"measurement": "Expression of ECM / pro-fibrotic matrix genes", "setting": "ENFs on TCPS, 14 days with Verteporfin, listed as Vert", "result": "mitigated"}, {"measurement": "Principal component analysis of RNA-seq data", "setting": "ENFs treated with Verteporfin for 14 days", "result": "more closely resembled untreated cells that had only been in culture for 2 days"}]}]}
